Tests used:
[1] = tested on: CT26 (murine colon carcinoma) tumor cells; assay: In vivo anti-tumor activity of combinations of a STING agonist and chimeric proteins (CT26 tumor model); set-up: species or system BALB/C mice; conditions: for effectiveness of combination by order of administration: chimeric protein provided after DMXAA relative to DMXAA following the chimeric protein
Experimental: The in vivo ability of specific combinations of a stimulator of interferon genes (STING) agonist and chimeric proteins to target and reduce tumor volume was determined.
BALB/C mice were inoculated with 500,000 CT26 (murine colon carcinoma) tumor cells. Eight days after inoculation, there was no significant difference between starting tumor volumes among the mice, i.e., volumes were approximately 100 mm^3. Specific combinations were included: DMXAA; anti-PD-1 (RMP1-14); anti-OX40 (OX86); PD1-Fc-OX40L; CSF1R-Fc-CD40L (FIG. 8A); DMXAA then anti-PD1; DMXAA then anti-OX40; DMXAA then PD1-Fc-OX40L; DMXAA then CSF1R-Fc-CD40L (FIG. 8B); PD1-Fc-OX40L then […]; and CSF1R-Fc-CD40L then DMXAA (FIG. 8C). Tumor sizes were assayed every other day until the 27th day after inoculation. Mice that rejected the tumor were re-challenged with a secondary tumor (300,000 CT26 tumor cells) on the opposing flank, and primary/secondary tumors continued to be measured.

[2] = tested on: various cytokines (e.g., CCL4, IL-18, IL-23, and IL-10); assay: In vivo serum cytokine expression in Cynomolgus Macaques (Luminex); set-up: species or system Cynomolgus Macaque; conditions: monkeys; human CSF1R-Fc-CD40L; relative to vehicle; FIG. 10
Experimental: (§1) The ability of the CSF1R-Fc-CD40L chimeric protein to induce in vivo cytokine expression in mice and in a non-human primate (Cynomolgus Macaque) was determined.
(§2) Mice were administered a vehicle or the murine CSF1R-Fc-CD40L chimeric protein and Cynomolgus Macaques were administered a vehicle or the human CSF1R-Fc-CD40L chimeric protein and the relative amount of various cytokines (e.g., CCL4, IL-18, IL-23, and IL-10) were detected and quantified.

In vivo toxicity in mice = assay: In vivo toxicity in mice
Experimental: as §2

[3] = tested on: various cytokines (e.g., CCL4, IL-18, IL-23, and IL-10); assay: In vivo serum cytokine expression in mice (Luminex); conditions: murine CSF1R-Fc-CD40L, relative to vehicle, FIG. 10
Experimental: as §1, §2

[4] = In vivo toxicity in monkeys
Experimental: as §2

[5] = tested on: CT26 (murine colon carcinoma) tumor cells; assay: In vivo anti-tumor activity of combinations of antibodies directed to immune checkpoint molecules and chimeric proteins (CT26 tumor model); set-up: species or system BALB/C mice; conditions: for tumor volume: relative to vehicle, until the 35th day, antibodies three doses of 100 μg, chimeric protein three doses of 300 μg
Experimental: The in vivo ability of specific combinations of antibodies directed to immune checkpoint molecules and chimeric proteins to target and reduce tumor volume was determined.
BALB/C mice were inoculated with 500,000 CT26 (murine colon carcinoma) tumor cells. Eight days after inoculation, there was no significant difference between starting tumor volumes among the mice, i.e., volumes were approximately 100 mm^3. Specific combinations were included: anti-CTLA-4 (9D9); anti-PD-1 (RMP1-14); anti-OX40 (OX86); PD1-Fc-OX40L; CSF1R-Fc-CD40L (FIG. 3B); anti-CTLA-4 then anti-PD1; anti-CTLA-4 then anti-OX40; anti-CTLA-4 then PD1-Fc-OX40L; anti-CTLA-4 then CSF1R-Fc-CD40L (FIG. 3C); PD1-Fc-OX40L then anti-CTLA-4; and CSF1R-Fc-CD40L then anti-CTLA-4 (FIG. 3D); anti-CTLA-4 then CSF1R-Fc-CD40L; CSF1R-Fc-CD40L then anti-CTLA-4; and CSF1R-Fc-CD40L with anti-CTLA-4 (FIG. 3E and FIG. 3F); and anti-PD-1 then CSF1R-Fc-CD40L; CSF1R-Fc-CD40L then anti-PD-1; and CSF1R-Fc-CD40L with anti-PD-1 (FIG. 4A and FIG. 4B).
In the experiments shown in FIG. 3A to FIG. 3D, tumor sizes were assayed every other day until the 27th day after inoculation. Mice that rejected the tumor were re-challenged with a secondary tumor (300,000 CT26 tumor cells) on the opposing flank, and primary/secondary tumors continued to be measured. In the experiments shown in FIG. 3E to FIG. 4B, tumor sizes were assayed every other day until the 35th day after inoculation. Mice that rejected the tumor were re-challenged with a secondary tumor (300,000 CT26 tumor cells) on the opposing flank, and primary/secondary tumors continued to be measured. Antibodies were given as three doses of 100 μg, the chimeric protein was given as three doses of 300 μg, with antibodies administered before, after, and simultaneously with the chimeric protein (days 7, 9, & 11; or days 12, 14, & 16).

Molecule: Cc1ccc2c(=O)c3cccc(CC(=O)O)c3oc2c1C [DMXAA, 5,6-dimethylxanthenone-4-acetic acid, reference compound]
- anti-tumor activity as a monotherapy ([1]; FIG. 8A): effective anti-tumor agent

Molecule: CSF1R-Fc-CD40L: chimeric protein: extracellular region of CSF1R, linker comprising a hinge-CH2-CH3 Fc region, extracellular region of CD40L; murine and human versions used
- serum cytokine levels [2]: greatly enhanced
- effectiveness of combination by order of administration [1]: more effective
- in vivo toxicity (In vivo toxicity in mice): no in vivo toxicity was observed
- serum cytokine levels [3]: greatly enhanced
- in vivo toxicity [4]: no in vivo toxicity was observed
- anti-tumor effects compared among treatment groups ([5]; FIG. 3E (anti-CTLA-4 series)): Roughly comparable amounts of anti-tumor effects
- anti-tumor effects compared among treatment groups ([5]; FIG. 4A (anti-PD-1 series)): Roughly comparable amounts of anti-tumor effects
- survivors ([5]; by 30 days after inoculation): no survivors
- improvement in tumor volume reduction by order of administration ([5]; chimeric protein administered after the anti-CTLA-4 antibody, FIG. 3C, 3D): most significant improvement
- tumor volume ([5]; FIG. 3E (anti-CTLA-4 series)): effective in reducing tumor volume
- tumor volume ([5]; FIG. 4A (anti-PD-1 series)): effective in reducing tumor volume

B1: PD1-Fc-OX40L: chimeric protein: extracellular domain of PD-1, linker comprising a hinge-CH2-CH3 Fc domain, extracellular domain of OX40L (protein)
chain: LDSPDRPWNPPTFSPALLVVTEGDNATFTCSFSNTSESFVLNWYRMSPSNQTDKLAAFPEDRSQPGQDCRFRVTQLPNGRDFHMSVVRARRNDSGTYLCGAISLAPKAQIKESLRAELRVTERRAEVPTAHPSPSPRPAGQFQSKYGPPCPPCPAPEFLGGPSVFLFPPKPKDQLMISRTPEVTCVVVDVSQEDPEVQFNWYVDGVEVHNAKTKPREEQFNSTYRVVSVLTVLHQDWLSGKEYKCKVSSKGLPSSIEKTISNATGQPREPQVYTLPPSQEEMTKNQVSLTCLVKGFYPSDIAVEWESNGQPENNYKTTPPVLDSDGSFFLYSRLTVDKSRWQEGNVFSCSVLHEALHNHYTQKSLSLSLGKIEGRMDQVSHRYPRIQSIKVQFTEYKKEKGFILTSQKEDEIMKVQNNSVIINCDGFYLISLKGYFSQEVNISLHYQKDEEPLFQLKKVRSVNSLMVASLTYKDKVYLNVTTDNTSLDDFHVNGGELILIHQNPGEFCVL
- effectiveness of combination by order of administration [1]: more effective

Reference: patent US20210324041A1, “COMBINATION THERAPIES” (Shattuck Labs, Inc., priority 2018, published 2021)
